Source: patent publication EP0193355B1, “Analgesic composition” (ELI LILLY AND COMPANY, priority 1985, dated 1986)
Where a name gives a salt, the structure may show the parent alone.

System: Mouse Writhing
Test: mouse writhing assay (acetic acid-induced writhing)
Assay type: in vivo, albino male mice
Details: for Percent Inhibition of Writhing: Codeine Sulfate 10 mg/kg + Saline, oral; for Codeine Sulfate Induced Inhibition of Mouse Writhing ED₅₀: codeine sulfate subcutaneous, writhing assessed 30 minutes later
Description: Writhing, which is characterized by contraction of the abdominal musculature, extension of the hindlegs, and rotation of the trunk, was induced in albino male mice. The extent to which writhing is reduced following administration of a test compound is an indication of the analgesic activity of that compound.
Mice, weighing 18-24 grams, were fasted overnight and given the test compounds by gavage or subcutaneously. Writhing was then induced by the intraperitoneal administration of acetic acid (0.55 to 0.60 percent). Each treatment group consisted of five mice. The total number of writhes for the treatment group was determined during a 10-minute observation period starting five minutes after acetic acid administration. […] The results in the mouse writhing assay are presented either as the effective dose in mg/kg of the respective test compound required to inhibit induced writhing in the test animals by fifty percent (ED₅₀), or as the percent inhibition of writhing at the particular dose of the test compound administered.

Row | Compound | Percent Inhibition of Writhing (30 minutes after administration) | Percent Inhibition of Writhing (60 minutes after administration) | Percent Inhibition of Writhing (120 minutes after administration) | Percent Inhibition of Writhing (180 minutes after administration) | Percent Inhibition of Writhing (240 minutes after administration) | Percent Inhibition of Mouse Writhing (Codeine Sulfate 10 mg/kg oral, Fluoxetine Hydrochloride 0 mg/kg, writhing assessed 60 minutes later) | inhibition at 10 mg/kg (Mus musculus, 1 h, Codeine Sulfate 10 mg/kg oral, Fluoxetine Hydrochloride 0 mg/kg, writhing assessed 60 minutes later, read-out: Percent Inhibition of Mouse Writhing) | Codeine Sulfate Inhibition of Mouse Writhing ED₅₀ (codeine sulfate oral, alone (Fluoxetine Hydrochloride 0), writhing assessed 60 minutes later) | Codeine Sulfate Inhibition of Mouse Writhing ED₅₀ (codeine sulfate oral, simultaneously with Fluoxetine Hydrochloride 20 mg/kg oral, writhing assessed 60 minutes later) | Codeine Sulfate Induced Inhibition of Mouse Writhing ED₅₀ (alone (Fluoxetine Hydrochloride 0 mg/kg s.c.)) | Codeine Sulfate Induced Inhibition of Mouse Writhing ED₅₀ (simultaneously with Fluoxetine Hydrochloride 20 mg/kg s.c.) | Codeine Sulfate Inhibition of Mouse Writhing ED₅₀ (pretreatment Fluoxetine Hydrochloride (20 mg/kg) oral three hours before, codeine sulfate oral 15 minutes prior to assessment of writhing) | Codeine Sulfate Inhibition of Mouse Writhing ED₅₀ (pretreatment Saline oral three hours before, codeine sulfate oral 15 minutes prior to assessment of writhing) | ED₅₀ of codeine sulfate alone relative to the amount needed when 20 mg/kg of fluoxetine hydrochloride was concomitantly administered (subcutaneous, 30 minutes prior to the assessment of mouse writhing) | analgesic activity (fluoxetine hydrochloride alone, doses up to 160 mg/kg, 30-180 minutes before writhing was induced)
1 | COc1ccc2c3c1O[C@H]1[C@@H](O)C=C[C@H]4[C@@H](C2)N(C)CC[C@@]341 [Codeine Sulfate, codeine sulfate] | 40% | 38% | 37% | 35% | 22% | no inhibition | 0% | 27.0 mg/kg | 15.4 mg/kg | 9.8 mg/kg | 2.8 mg/kg | 9.4 mg/kg | 18.6 mg/kg | 3.5 times | 
2 | CNCCC(Oc1ccc(C(F)(F)F)cc1)c1ccccc1 (stereo not drawn) [fluoxetine hydrochloride, 3-(4-trifluoromethylphenoxy)-N-methyl-3-phenylpropylamine] |  |  |  |  |  |  |  |  |  |  |  |  |  |  | devoid of analgesic activity
